Test results from US9855248B2, “Polymorph of itraconazole with improved pharmaceutical properties” (The Chinese University of Hong Kong, priority 2016, dated 2018).
Entries after “also recorded” stand apart in the source; their conditions may differ.

What was measured:
[1] = type: physicochemical
Protocol: Solubilities of different polymorphs were determined by adding excess drug to 10 ml of 50% v/v aqueous ethanol in glass vials, followed by equilibration with occasional shaking at different temperatures (4° C., 10° C., 20° C., 25° C., 34° C., 40° C.) in a temperature-controlled incubator (Lovibond TC 135S, Tintometer GmbH, Dortmund, Germany) for 3 days (i.e., until equilibrium was reached). The solution was then filtered and the drug content was analyzed by UPLC (Agilent 1200 Infinity LC systems) using a UHPLC ZORBAX Eclipse Plus C18 column (2.1 mm×50 mm; 1.8 m). The mobile phase consisted of acetonitrile and 0.1% formic acid (60:40 v/v) eluted at 1 ml/min. Quantification was based on the peak area measurement by UV absorption at λ=260 nm. After the study, the residual solid in each glass vial was analyzed by DSC and XRPD to check for possible polymorphic transitions during the study. Solubility data were expressed in mole fraction as follows:
[formula] where n1 is the number of moles of solvent, and n2 is the number of moles of solute.
In addition to the enthalpy of fusion, equilibrium solubility and the related enthalpy of solution in a given solvent system can offer useful information on the bonding strength within the crystal lattice of a particular polymorph. […] According to the van't Hoff equation, the plot should be linear if the enthalpy of solution term in the equation is truly temperature-independent. […] The extrapolation of two linear plots yielded a transition temperature, Tr, of […] at the intersection point for the two polymorphs. The enthalpy, ΔHII→I, and entropy, ΔSII→I, of polymorphic transition from Form II to Form I were estimated to be −4470.8 J/mol and −5.7 J/mol·K from the slope of the log solubility ratio plot in FIG. 6B and from the relation, ΔSII→I=ΔHII→I/Tr (i.e., when ΔGII→I=0), respectively. The free energies of polymorphic transition, ΔGII→I, from Form II to Form I at 25° C. and 37° C., as defined by the equation, ΔGII→I=ΔHII→I−TΔSII→I, were calculated to be −2771 J/mol and −2703 J/mol, respectively. The solubility of Form II was about 2-3 fold higher than that of Form I in the temperature range studied.

[2] = Powder dissolution study in 50% v/v aqueous ethanol; type: physicochemical; conditions: 25° C.; for solid form of undissolved solid at end of dissolution study (DSC and XRPD): 3-day dissolution study; for initial dissolution rate (in words): initial time period
Protocol: As an alternative means to compare the solubilities of the three ITZ polymorphs, the dissolution-time profiles of these crystal forms were determined in the same solvent system. According to the Noyes Whitney equation, the dissolution rate per unit surface area of a drug solid in contact with the dissolution medium is directly proportional to its solubility under sink conditions at a constant temperature. Thus the amount of drug dissolved initially over a defined time period can provide an indirect measure of the drug solubility. […] The concentrations of Form I and Form II in dissolution media increased gradually with time and plateaued off after ˜10 h. The maximum drug concentration attained was 2-3 fold higher for Form II than for Form I, consistent with the equilibrium solubility data.
All powder samples for dissolution testing were first sieved through an 80 mesh-screen (180 μm), and only particles with sizes smaller than 180 m were used. An accurately weighed amount (20±0.2 mg) of each ITZ polymorph or ITZ amorphous powder (made by rapid melt quenching) was dispersed in 25 ml 50% v/v aqueous ethanol with continuous stirring at 100 rpm in a round bottom flask, equilibrated inside a temperature-controlled incubator (Lovibond TC 135S, Tintometer GmbH, Dortmund, Germany) at 25° C. At appropriate time intervals, a 400 μl aliquot of each solution was withdrawn, filtered through 0.22 m membrane filters, and diluted with a suitable amount of 50% v/v aqueous ethanol prior to UPLC analysis. Each sample withdrawn was replaced by the same volume of fresh dissolution medium. The method of drug content detection was the same as described in the preceding section. At the end of the dissolution study, the undissolved solid left in the medium was checked by DSC or XRPD for possible polymorphic transition.

[3] = Solid-state physical stability of Form III (annealing, ambient handling, grinding; XRPD); type: physicochemical
Protocol: X-ray powder diffraction (XRPD) data were collected using a powder X-ray diffractometer (Philips, Xpert PRO, The Netherlands) equipped with a Cu radiation source operating at 40 kV and […]. Sample was uniformly packed into a custom-made aluminum holder with a 2 mm depth and scanned from 20 of 3° to 400 at a rate of 4°/min with a step size of 0.017°.
FIGS. 2A, 2B and 2C show the XRPD patterns for the three different growth zones, respectively. […] The third zone, termed Form III, was characterized by signature peaks at approximately 11.9°, 16.7°, 17.4°, 18.7°, 19.1°, 20.0°, and 21.1°, indicative of a new crystal form, which has not been reported previously. […] The morphologies of Form I and II were similar and almost indistinguishable. Form III only existed in the bulk of recrystallized ITZ (FIG. 1C). All of the three forms grew as spherulites at temperatures below 110° C. (FIG. 1D). At temperatures above 110° C., Forms I and II grew as separate faceted crystals (FIGS. 1E and 1F), whereas Form III transformed to Form II. The latter was further substantiated by annealing Form III at 100° C. and 120° C.
Samples of ITZ polymorphs recrystallized from melt on glass coverslips were first examined by HSM. […] (FIGS. 3B and 3C). Further heating led to melting of Form II at 158° C. (FIG. 3D), and eventually melting of Form I at around 167° C. (FIG. 3E). To gain further insight into the thermal behaviors and melting properties of the different polymorphs, DSC analyses were conducted and the respective thermograms are presented in FIG. 4A. Form I melted at 165.1° C., which is in excellent agreement with the melting point of the commercial ITZ form (Form I). The melting point of Form II (155.7° C.) is the same as that described previously. The measured molar enthalpy of fusion, ΔH^f, of Form II was 60.6±1.7 kJ/mol, which is less than that (ΔH^f=68.6±1.5 kJ/mol) of Form I. The molar entropy of fusion, ΔS^f, of Form II (141±4 J/mol·K) was also less than that of Form I (ΔS^f=156±4 J/mol·K). […] At low scanning rate, e.g., 10° C./min, a small exothermic peak appeared at ˜120° C. (which possibly reflects the transition of Form III to Form II), followed by an endotherm at ˜156° C., corresponding to the melting of Form II. At higher heating rates, e.g., 40° C./min, the melting endotherm of Form III started to emerge at 119.4° C., followed by a relatively small endotherm at a higher temperature, which can be attributed to the melting of recrystallized Form II from the Form III melt. Due to the co-existence of Form III and/or its melt, this Form II was seen to melt at a lower temperature than its phase pure counterpart (m.p. ˜156° C.). […]

[4] = pH 7.4; cited from earlier work

For `CCC(C)n1ncn(-c2ccc(N3CCN(c4ccc(OC[C@H]5CO[C@](Cn6cncn6)(c6ccc(Cl)cc6Cl)O5)cc4)CC3)cc2)c1=O` (mixture of isomers) [Form I, itraconazole], the “molar enthalpy of solution” value [1] was 55.8 (±2.8) kJ/mol, the “time at which concentration in dissolution medium plateaued off” value [2] was about 10 h and the “solid form of undissolved solid at end of dissolution study (DSC and XRPD)” value (shortened to “solid form of undissolved solid”) [2] was “maintained their original crystal structures; also recorded: remained unchanged”.
In the case of `CCC(C)n1ncn(-c2ccc(N3CCN(c4ccc(OC[C@H]5CO[C@](Cn6cncn6)(c6ccc(Cl)cc6Cl)O5)cc4)CC3)cc2)c1=O` (mixture of isomers) [Form II, itraconazole], the “enthalpy, ΔHII→I, of polymorphic transition from Form II to Form I” value [1] is reported as -1.0685 kcal/mol, the “entropy, ΔSII→I, of polymorphic transition from Form II to Form I” value [1] is reported as −5.7 J/mol·K and the “molar enthalpy of solution” value [1] is reported as 51.3 (±2.9) kJ/mol. For the same molecule, the “transition temperature, Tr, of Form I and Form II” value [1] was 497.8 °C, the “solubility relative to that of Form I” value ([1]; 3 days) was 2-3 fold and the “maximum/peak drug concentration relative to that of Form I” value [2] was 2-3 fold. The “time at which concentration in dissolution medium plateaued off” value [2] was about 10 h and the “solid form of undissolved solid” value [2] was “maintained their original crystal structures; also recorded: remained unchanged”.
In the case of `CCC(C)n1ncn(-c2ccc(N3CCN(c4ccc(OC[C@H]5CO[C@](Cn6cncn6)(c6ccc(Cl)cc6Cl)O5)cc4)CC3)cc2)c1=O` (mixture of isomers) [Form III, itraconazole], the “maximum/peak drug concentration relative to that of Form I” value [2] is reported as “about 7 fold”, the “time of peak drug concentration” value [2] is reported as about 15 h and the “solid form of undissolved solid” value [2] is reported as “converted to Form I”. For the same molecule, the “initial dissolution rate (in words)” value [2] was “dissolved much more rapidly than the other two forms”, the “phase stability on annealing (XRPD)” value ([3]; 100° C. for 10 hours) was “no such phase transition” and the “phase stability on annealing (XRPD)” value ([3]; 120° C. for 10 hours) was “conversion to Form II”. For the same molecule, the “crystal structure after grinding (XRPD)” value ([3]; grinding with pestle and mortar) was “remained unchanged in crystal structure” and the “physical stability at ambient conditions” value ([3]; scraping from glass coverslip for XRPD analysis) was “stable at ambient conditions”.
With `CCC(C)n1ncn(-c2ccc(N3CCN(c4ccc(OC[C@H]5CO[C@](Cn6cncn6)(c6ccc(Cl)cc6Cl)O5)cc4)CC3)cc2)c1=O` (mixture of isomers) [amorphous form, itraconazole] the “solid form of undissolved solid” value [2] was “converted to Form I”, the “solid form of undissolved solid” value ([2]; listed as amorphous material) was “converted to Form I” and the “dissolved drug concentration level after initial drop” value ([2]; after 50 h) was “equivalent to the equilibrium solubility of Form I”. For the same molecule, the “initial dissolution rate (in words)” value [2] was “increased most rapidly”.
In the case of `CCC(C)n1ncn(-c2ccc(N3CCN(c4ccc(OC[C@H]5CO[C@](Cn6cncn6)(c6ccc(Cl)cc6Cl)O5)cc4)CC3)cc2)c1=O` (relative stereo) [ITZ, (2R,4S)-rel-1-(Butan-2-yl)-4-{4-[4-(4-{[(2R,4S)-2-(2,4-dichlorophenyl)-2-(1H-1,2,4-triazol-1-ylmethyl)-1,3-dioxolan-4-yl]methoxy}phenyl)piperazin-1-yl]phenyl}-4,5-dihydro-1H-1,2,4-triazol-5-one], the water-solubility [4] is given as 1 ng/mL.
